This assay concerns edema induced by carrageenan. Briefly: experimental inflammation model with carrageenan at the rats' posterior paws. The format is in vivo, Wistar rats. Particulars: rat, administered independently. Here is the method: The anti-inflammatory effect was found via the experimental inflammation model with carrageenan at the rats' posterior paws. For the experimental research, we used Wistar rats with 120±10g weight, in groups of 9 animals.
1% carrageenan saline solution was administered by subcutaneous injection (0.1 mL volume) In the posterior paw.
The anti-inflammatory combination was administered 1 hour before carrageenan. The posterior paws' dimensions were measured before and 3 hours after carrageenan solution injection. The contra lateral paw was used as reference. The following combination was used for the experiments:
This (combination, formulated as) suspension was administered orally (gavage), in dosage of 0.2 mL/100 g rat body weight.
Acetylsalicylic acid was administered independently, in doses of 250 mg/kg body weight, equivalent to the quantity used in the combination. Chlorpheniramine was also (independently) administered by oral route, as reference, in doses equivalent to 6 mg/kg body weight.
Background: The carrageenan paw model is a standard test of acute inflammation.

`CC(=O)Oc1ccccc1C(=O)O` [acetylsalicylic acid]: under “250 mg/kg body weight”, the “anti-inflammatory effect (reduces pow edema), mean value” is “approximately 22%”.

With `CN(C)CCC(c1ccc(Cl)cc1)c1ccccn1` (centres unmarked) [chlorpheniramine], the anti-inflammatory effect result (oral route, 6 mg/kg body weight) is reported as “no anti-inflammatory effect”.

For the origin of these results see patent EP1945226B1, “DRUG COMBINATION WITH ANALGESIC, ANTI-INFLAMMATORY AND DECONGESTIVE ACTIVITY” (Voicu, A. Victor, priority 2005, dated 2006).
